Assay results taken from patent US20190292546A1, “TLR3 AGONIST FOR USE FOR INDUCING APOPTOSIS IN SENESCENT CANCER CELLS” (Centre Léon-Bérard, priority 2016, published 2019).
Entries after “also recorded” stand apart in the source; their conditions may differ.

Columns and labels:
[1] = test system: NCI-H292 human Non-Small-Cell Cancer Cells; assay: Senescence status of Paclitaxel-Treated Cells (phase-contrast morphology, SA-β-GAL, IL-8); assay type: cell-based; details: 4 nM paclitaxel
Procedure: (§1) NCI-H292 human Non-Small-Cell Cancer Cells were plated at 5000 cells/cm^2 in a 6-well plate in RPMI supplemented with 10% FCS and 1% Hepes/1% NAPy/PS. They were treated after 16-24 hours of plating and for 7 to 10 days with 4 nM paclitaxel (Sigma) or with DMSO (“solvent”), with a change of medium on day 4. The following tests were then performed to ascertain the Paclitaxel-Treated Cells' senescence status.
(§2) 1) An inverted phase-contrast light microscope was used at 40× magnification to evaluate morphology of the Paclitaxel-Treated Cells. […] 2) The senescence-associated β-galactosidase [SA-β-GAL] activity was measured in the Paclitaxel-Treated Cells described above using the Senescence beta-galactosidase Staining Kit (Cell Signaling Technology) (FIG. 2). 3) The secretion of IL-8 as part of the senescence-associated secretome (Tchkonia et al., 2013; J Clin Invest. 123(3):966-72) was quantified in the culture supernatant of the Paclitaxel-Treated Cells using an ELISA kit (Biolegend Kit hulL8), and read on a TECAN microplate reader).

[2] = test system: NCI-H292 human Non-Small-Cell Cancer Cells; assay: IL-8 secretion in culture supernatant by ELISA; assay type: cell-based; details: 4 nM paclitaxel, 1, 3 or 7 days, last 24H of culture, FIG. 3
Procedure: NCI-H292 human Non-Small-Cell Cancer Cells were plated at 5000 cells/cm^2 in a 6-well plate in RPMI supplemented with 10% FCS and 1% Hepes/1% NAPy/PS. […] The following tests were then performed to ascertain the Paclitaxel-Treated Cells' senescence status.
as §2

[3] = test system: NCI-H292 cells; assay: TLR3 expression by intracellular staining and flow cytometry; assay type: cell-based, human; details: 7 days of culture with paclitaxel 4 nM, anti-TLR3.1 antibody, FIG. 4
Procedure: To ascertain that TLR3 expression was not lost upon senescence, Paclitaxel-Treated Cells were harvested, fixed and permeabilized with the Cytoperm/Cytofix kit (Becton Dickinson), then stained at 4° C. for TLR3 (anti-TLR3.1 antibody (Dendritics)+goat anti-mouse Alexa 647) and analyzed on a Becton Disckison FACSCalibur flow cytometer.

[4] = test system: TLR3 WT and TLR3 KO NCI-H292 untreated or Paclitaxel-Treated Cells; assay: TLR3-triggered apoptosis (Annexin V-FITC/PI flow cytometry) in Paclitaxel-Treated Cells; assay type: cell-based, human; details: 4 μg/ml Poly(I:C), 24 hours, paclitaxel-induced senescent vs untreated NCI-H292, FIG. 5
Procedure: as §1
TLR3 WT and TLR3 KO NCI-H292 untreated or Paclitaxel-Treated Cells were incubated for 24 hours with 4 μg/ml Poly(I:C) (Invivogen), then cells were stained at 4° C. with Annexin V-FITC and PI (Biolegend) and analyzed on a Becton Disckison FACSCalibur flow cytometer.

[5] = test system: Untreated or Radiation-Induced Senescent WT and TLR3 KO NCI-H292 Cells; assay: TLR3-triggered apoptosis (Annexin V-FITC PI flow cytometry) in Radiation-Induced Senescent Cells; assay type: cell-based, human; details: 10 μg/ml Poly(I:C), 24 hours, senescence by 8 Grey irradiation vs untreated NCI-H292, FIG. 6
Procedure: NCI-H292 human Non-Small-Cell Cancer Cells were plated at 5000 cells/cm^2 in a 6-well plate in RPMI supplemented with 10% FCS and 1% Hepes/1% NAPy/PS. They were irradiated with 8 Grey 16 hours after plating, and the medium was changed right after irradiation.
Radiation-Induced Senescent Cells' susceptibility to TLR3-triggered apoptosis was measured. Untreated or Radiation-Induced Senescent WT and TLR3 KO NCI-H292 Cells were incubated for 24 hours with 10 μg/ml Poly(I:C) (Invivogen), then cells were stained at 4° C. with Annexin V-FITC PI (Biolegend) and analyzed on a Becton Disckison FACSCalibur flow cytometer.

[6] = test system: Untreated or Oxidative Stress-induced Senescent WT and TLR3 KO NCI-H292 Cells; assay: TLR3-triggered apoptosis (Annexin V-FITC flow cytometry) in Oxidative Stress-induced Senescent Cells; assay type: cell-based, human; details: 10 μg/ml Poly(I:C), 24 hours, senescence by 300 μM H2O2 vs untreated NCI-H292, FIG. 7
Procedure: NCI-H292 human Non-Small-Cell Cancer Cells were plated at 5000 cells/cm^2 in a 6-well plate in RPMI supplemented with 10% FCS and 1% Hepes/1% NAPy/PS. They were treated with 300 μM H2O2 16 hours after plating, and the medium was changed 1 hour after H2O2 treatment.
Oxidative Stress-induced Senescent Cells' susceptibility to TLR3-triggered apoptosis was measured. Untreated or Oxidative Stress-induced Senescent WT and TLR3 KO NCI-H292 Cells were incubated for 24 hours with 10 μg/ml Poly(I:C) (Invivogen), then cells were stained at 4° C. with Annexin V-FITC (Biolegend) and analyzed on a Becton Disckison FACSCalibur flow cytometer.

Compound | morphology of the Paclitaxel-Treated Cells (observed changes) ([1]; 7 to 10 days, NCI-H292, phase-contrast microscopy 40x, FIG. 1) | senescence status of the cells ([1]; NCI-H292, FIGS. 1-3) | secretion of IL-8 in the culture supernatant [2] | expression of TLR3 by NCI-H292 cells [3] | susceptibility to TLR3-triggered apoptosis [4] | susceptibility to TLR3-triggered apoptosis [5] | susceptibility to TLR3-triggered apoptosis [6]
CC(=O)O[C@H]1C(=O)[C@@]2(C)[C@H]([C@H](OC(=O)c3ccccc3)[C@]3(O)C[C@H](OC(=O)[C@H](O)[C@@H](NC(=O)c4ccccc4)c4ccccc4)C(C)=C1C3(C)C)[C@]1(OC(C)=O)CO[C@@H]1C[C@@H]2O [Paclitaxel, paclitaxel] | a stop in cell division and enlargement in size | have become senescent | Large amounts of IL-8 | increased |  |  | 
Polyinosine-polycytidylic acid [Poly(I:C)] |  |  |  |  | more sensitive to TLR3-triggered apoptosis | induces apoptosis; also recorded: more sensitive to TLR3-triggered apoptosis | induces apoptosis; also recorded: more sensitive to TLR3-triggered apoptosis
